Measurements published in patent US6083922A (priority 1997, dated 2000).
In brackets after ≈: the same amount, converted by molar mass. Several values for one entry are separate records, joined by “and”; a condition that tells them apart may be missing. Equal entries are not always repeated. Where two headings read alike, the source gives them in different places.

Columns and labels:
[1] = tested on: M. tuberculosis H37Rv(lux); experiment: Killing curve assay; format: cell-based, Mycobacterium tuberculosis
[2] = tested on: Drug-Sensitive Strains of M. tuberculosis; experiment: microbe, parasite or virus in culture; format: cell-based; settings: Mycobacterium tuberculosis
[3] = clinical; format: in vivo, human; settings: for Sputum Tobramycin Concentrations: individual subjects, 300 mg in 5 mL 1/4 NS
Protocol: (§1) The doses were separated by at least 2 days and not more than 5 days. Peak serum and sputum concentrations were assessed and results are seen in Tables 10 and 11.

[4] = Serum tobramycin concentrations following aerosol administration (Example 5); format: in vivo, human; settings: for Serum Tobramycin: individual subjects
Protocol: as §1

[5] = FEV1 change following aerosol administration (Example 5); format: in vivo, human; settings: individual subjects, 300 mg, 30 min from completion
[6] = format: physicochemical
[7] = tested on: M. tuberculosis; experiment: Minimal inhibitory / bactericidal concentration of tobramycin, general statements; design: species or system Mycobacterium tuberculosis
[8] = tested on: P. aeruginosa; settings: aerosolized 600 mg tid, cited from earlier work
[9] = cited from earlier work
[10] = Comparative characteristics of nebulizers delivering tobramycin
From the text: Both ultrasonic and jet nebulizers were studied.
An in vitro comparative study evaluated a variety of commercially available jet nebulizers, including among others, the Acorn II® by Marquest, T-Updraft® by Hudson, Sidestream® by Medicaid, and Pari LC® by Pari. The PulmoAide® compressor was chosen because of its reliability and widespread use.

[11] = Randomized cross-over study of nebulizers, peak sputum tobramycin
From the text: A randomized, cross-over study compared the ability of several nebulizers to deliver tobramycin by measuring peak sputum tobramycin concentrations in samples collected ten minutes after completion of the aerosol dose.

[12] = Ultrasonic nebulizer delivery of tobramycin, effect of saline dilution (Example 2); settings: for aerosolized output of tobramycin, MEAN: UltraAire, 60 mg/mL, 5 mL, 10 minutes
Protocol: This example describes testing performed to determine the effect of normal and quarter strength diluted saline on the aerosolization of tobramycin and on the amount of drug delivered over a ten-minute period.
To test output from a hand-held portable ultrasonic nebulizer, an UltraAirs by Omron was used. This ultrasonic nebulizer has a reusable medication cup that is placed over the ultrasonic crystal. […] After 10 minutes nebulization run, the cups were reweighed. The aerosolized output of tobramycin was determined from the difference between weight before and after the nebulization. Each solute was tested 14 times.

SMILES: NNC(=O)c1ccncc1 [isoniazid]
- persistence of bactericidal activity ([1]; FIG. 4): only temporary
- day growth of the bacteria resumed ([1]; isoniazid 0.06 μg/mL): 4 days
- day of initial sharp killing ([1]; isoniazid 0.06 μg/mL): 4 days
- day growth of the bacteria resumed ([1]; isoniazid 0.25 μg/mL): 7 days
- day of initial sharp killing ([1]; isoniazid 0.25 μg/mL): 1 days

SMILES: NC[C@H]1O[C@H](O[C@H]2[C@H](O)[C@@H](O[C@H]3O[C@H](CO)[C@@H](O)[C@H](N)[C@H]3O)[C@H](N)C[C@@H]2N)[C@H](N)C[C@@H]1O [tobramycin]
- time for which growth is prevented ([1]; 4 μg/mL): about eight
- day at which growth is seen to be inhibited ([1]; 8 μg/mL): 7 days
- day at which 2-log reduction is reached ([1]; 16 μg/mL): four
- bactericidal activity compared to growth control ([1]; 1-2 μg/mL): bactericidal activity decreasing the count of M. tuberculosis
- reduction of M. tuberculosis counts in vitro ([1]; 8 and 16 μg/mL): more than 2 log
- activity against M. tuberculosis H37Rv in vitro ([1]; FIG. 4): potent activity
- persistence of bactericidal activity ([1]; FIG. 4): continuous decrease and inhibition of M. tuberculosis growth
- count of Mycobacterium tuberculosis after treatment ([1]; tobramycin 8 and 16 μg/mL, decreased from 10^6): about 10^2 CFU
- MIC ([2]; H37RV, read-out: Tobramycin MIC, strain H37RV): 4 µg/mL (≈ 8.56 µM)
- MIC ([2]; all tested drug sensitive strains, read-out: minimal inhibitory concentration): 4 to 8 µg/mL (≈ 8.56 to 17.1 µM)
- MIC ([2]; read-out: Tobramycin MIC, strain TN675): 4 µg/mL (≈ 8.56 µM)
- MIC ([2]; read-out: Tobramycin MIC, strain TN994): 4 µg/mL (≈ 8.56 µM)
- MIC ([2]; read-out: Tobramycin MIC, strain TN1008): 4 µg/mL (≈ 8.56 µM)
- MIC ([2]; read-out: Tobramycin MIC, strain TN1039): 4 µg/mL (≈ 8.56 µM)
- MIC ([2]; read-out: Tobramycin MIC, strain TN2351): 8 µg/mL (≈ 17.1 µM)
- MIC ([2]; read-out: Tobramycin MIC, strain TN2524): 4 µg/mL (≈ 8.56 µM)
- MIC ([2]; read-out: Tobramycin MIC, strain TN3183): 4 µg/mL (≈ 8.56 µM)
- MIC ([2]; read-out: Tobramycin MIC, strain TN3979): 4 µg/mL (≈ 8.56 µM)
- MIC ([2]; read-out: Tobramycin MIC, strain TN4259): 4 µg/mL (≈ 8.56 µM)
- concentration at 10 min ([3]; human, sputum, inhaled or intranasal, mean, Pari LC, 300 mg, 10 min): 396000 ± 677000 ng/g
- Sputum Tobramycin Concentrations ([3]; Pari LC, 10 min from completion, 10 min): 1595.9 μg/gm and 764.2 μg/gm and 133.7 μg/gm and 166.5 μg/gm and 1395.6 μg/gm
- Sputum Tobramycin Concentrations ([3]; Pari LC, 1 hour, 60 min): 481.8 μg/gm and 231.8 μg/gm and 110.7 μg/gm and 32.4 μg/gm and 186.8 μg/gm
- Sputum Tobramycin Concentrations ([3]; Pari LC, 2 hours, 120 min): 416.8 μg/gm and 52.8 μg/gm and 92.5 μg/gm and 60.5 μg/gm and 131.8 μg/gm
- Sputum Tobramycin Concentrations ([3]; Pari LC, baseline): bql (<20 μg/gm)
- Sputum Tobramycin Concentrations ([3]; Sidestream, 10 min from completion, 10 min): 792.8 μg/gm and 460.6 μg/gm and 162.5 μg/gm and 84.2 μg/gm and 1135.9 μg/gm
- Sputum Tobramycin Concentrations ([3]; Sidestream, 1 hour, 60 min): 1026.7 μg/gm and 23.1 μg/gm and 180.5 μg/gm and 36.6 μg/gm and 488.2 μg/gm
- Sputum Tobramycin Concentrations ([3]; Sidestream, 2 hours, 120 min): 163 μg/gm and 49.1 μg/gm and 58.1 μg/gm and 57.5 μg/gm and 331.5 μg/gm
- Sputum Tobramycin Concentrations ([3]; Sidestream, baseline): bql (<20 μg/gm) and bqi
- Sputum Tobramycin Concentrations, Mean/Std Dev ([3]; mean, Pari LC, 300 mg, 1 hour): 186.8 μg/gm
- Sputum Tobramycin Concentrations, Mean/Std Dev ([3]; mean, Pari LC, 300 mg, 2 hours): 131.8 μg/gm
- Sputum Tobramycin Concentrations, Mean/Std Dev ([3]; mean, Pari LC, baseline): bql (<20 μg/gm)
- Sputum Tobramycin Concentrations, Mean/Std Dev ([3]; mean, Sidestream, 300 mg, 10 min): 527.21 ± 585.9 μg/gm
- Sputum Tobramycin Concentrations, Mean/Std Dev ([3]; mean, Sidestream, 300 mg, 1 hour): 488.2 μg/gm
- Sputum Tobramycin Concentrations, Mean/Std Dev ([3]; mean, Sidestream, 300 mg, 2 hours): 331.5 μg/gm
- Sputum Tobramycin Concentrations, Mean/Std Dev ([3]; mean, Sidestream, baseline): bql (<20 μg/gm)
- safety of the dosage ([4]; 300 mg aerosol, because of serum concentrations): extremely safe
- serum concentrations ([4]; 300 mg in 5 mL of 60 mg/mL in 1/4 NS): < 1600 ng/mL
- Serum Tobramycin ([4]; Pari LC, 300 mg in 5 mL 1/4 NS, 1 hour from completion, 60 min): 0.2 µg/mL and 0.5 µg/mL and 0.6 µg/mL and 0.8 µg/mL
- Serum Tobramycin ([4]; Pari LC, 300 mg in 5 mL 1/4 NS, 2 hours from completion, 120 min): 0.3 µg/mL and 0.4 µg/mL and 0.5 µg/mL and 0.7 µg/mL
- Serum Tobramycin ([4]; Pari LC, 300 mg, baseline): not detected
- Serum Tobramycin ([4]; Sidestream, 300 mg in 5 mL 1/4 NS, 1 hour from completion, 60 min): 0.3 µg/mL and 0.2 µg/mL and 0.9 µg/mL and 1.2 µg/mL and 1.6 µg/mL
- Serum Tobramycin ([4]; Sidestream, 300 mg in 5 mL 1/4 NS, 2 hours from completion, 120 min): 0.2 µg/mL and 0.8 µg/mL and 1.0 µg/mL
- Serum Tobramycin ([4]; Sidestream, 300 mg, baseline): not detected
- ± % change FEV1 ([5]; Pari LC): -1.2% and 1.2% and -0.6% and -2% and -5%
- ± % change FEV1 ([5]; Sidestream): -2.2% and 0.0% and -7.6% and -1%
- color of the solution ([6]; 60 mg/mL, 40° C., pH 7.0, after 35 days): yellowing of the solution
- degradation of tobramycin ([6]; pH greater than 7.0): degradation of tobramycin occurs
- MBC ([7]; Mycobacterium tuberculosis, in the lungs and sputum, read-out: concentration found to be bactericidal): ≥ 8 µg/mL
- MIC ([7]; Mycobacterium tuberculosis, read-out: lowest systemic minimal inhibitory concentration): ~8 µg/mL (≈ 17.1 µM)
- MIC ([7]; Mycobacterium tuberculosis, systemic administration, read-out: minimal inhibitory concentration which would need to be present in the systemic circulation): 800 to 1000 µg/mL (≈ 1710 to 2140 µM)
- sputum concentrations providing bactericidal activity, in multiples of MIC ([7]; toward M. tuberculosis): 10-100 times MIC
- spirometry ([8]; 71 CF patients): improved spirometry
- sputum density of P. aeruginosa ([8]; 71 CF patients): significant reduction in sputum density of P. aeruginosa
- safety and efficacy in CF patients [8]: both safe and efficacious
- maximum safe concentration in the serum [9]: 8 to 10 µg/mL
- recommended peak therapeutic serum concentrations [9]: 8 to 10 µg/mL
- MMAD ([10]; DeVilbiss 99, 20 mg/mL in 1/2 NS): 4-5 microns
- Time to Nebulize ([10]; DeVilbiss 99, 20 mg/mL in 1/2 NS, 30 mL): 10 to 12 min
- Drug Dose/mL ([10]; DeVilbiss 99, 20 mg/mL in 1/2 NS, total dose 600 mg): 33 ± 1.8 mg
- tobramycin delivered ([10]; DeVilbiss 99, 600 mg): 33 mg/mL
- particle size ([10]; Pari LC): 4.5 μ
- particle sizes ([10]; Pari LC Plus): 3.3 μ
- MMAD ([10]; Pari LC, 60 mg/mL in 1/4 NS): 4-5 microns
- Time to Nebulize ([10]; Pari LC, 60 mg/mL in 1/4 NS, 5 mL): 10 min
- Drug Dose/mL ([10]; Pari LC, 60 mg/mL in 1/4 NS, total dose 300 mg): 29 ± 5 mg
- particle size output ([10]; Sidestream): 2.2 μ
- MMAD ([10]; Sidestream, 60 mg/mL in 1/4 NS): ~ 2.2 microns
- Time to Nebulize ([10]; Sidestream, 60 mg/mL in 1/4 NS, 5 mL, time to sputtering of jet): ~ 13 minutes
- Drug Dose/mL ([10]; Sidestream, 60 mg/mL in 1/4 NS, total dose 300 mg): 30 ± 1.8 mg
- tobramycin delivered to the airways ([10]; all three nebulizers): about 30 mg/mL
- time to complete nebulization of all 5 mL ([11]; Pari LC, 60 mg/mL in 1/4 NS): about ten
- mass median aerodynamic diameter ([11]; Pari LC, 60 mg/mL in 5 mL 1/4 NS): about 3.3 μm
- Cmax at 10 min ([11]; human, in vivo, inhaled or intranasal, 300 mg): ~679000 ng/g
- amount of tobramycin delivered ([12]; 1/4 diluted saline versus full strength nondiluted saline): Higher amount of tobramycin was delivered
- aerosolized output of tobramycin, MEAN ([12]; diluted 0.22% NS): 4.071
- aerosolized output of tobramycin, MEAN ([12]; nondiluted 0.9% NS): 3.636
